Test system: T-47D spheroids with HUVEC/MSC, viability
Assay: Anticancer human tumor T-47D cell line growth inhibition [PI3K];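 also: spheroids exposed to agents for seven days before reading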;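 as to viability, T/C: percent of DMSO vehicle control luminescence so 100% = untreated growth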
Conditions: for viability, T/C: stronger effect = lower value
Summary of the method: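 Viability of mixed-cell spheroids was determined after exposure to pairwise combinations, one partner being inavolisib, alpelisib, duvelisib or copanlisib. Highest tested concentration matched clinical Cmax where known and 10 microM where not, descending in half-log steps.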

[1] = curve of first compound, second compound 0.0316 µM
[2] = curve of first compound, second compound 0.1 µM
[3] = curve of first compound, second compound 0.316 µM
[4] = curve of first compound, second compound 1 µM
[5] = curve of first compound, second compound 3.16 µM
[6] = curve of first compound, second compound 10 µM

## Cn1cnc2c(F)c(Nc3ccc(Br)cc3Cl)c(C(=O)NOCCO)cc21 + CC(Nc1ncnc2nc[nH]c12)c1cc2cccc(Cl)c2c(=O)n1-c1ccccc1
[1]
  IC50: > 3 µM
[2]
  IC50: > 3 µM
[3]
  IC50: > 3 µM
[4]
  IC50: > 3 µM
[5]
  IC50: > 3 µM
[6]
  IC50: > 3 µM
Second compound 0.0316 µM, first compound 0.00949 µM
  viability, T/C: 104%
Second compound 0.0316 µM, first compound 0.03 µM
  viability, T/C: 93.4%
Second compound 0.0316 µM, first compound 0.0949 µM
  viability, T/C: 100%
Second compound 0.0316 µM, first compound 0.3 µM
  viability, T/C: 81%
Second compound 0.0316 µM, first compound 0.949 µM
  viability, T/C: 84.2%
Second compound 0.0316 µM, first compound 3 µM
  viability, T/C: 77.1%
Second compound 0.1 µM, first compound 0.00949 µM
  viability, T/C: 94.6%
Second compound 0.1 µM, first compound 0.03 µM
  viability, T/C: 86%
Second compound 0.1 µM, first compound 0.0949 µM
  viability, T/C: 87.8%
Second compound 0.1 µM, first compound 0.3 µM
  viability, T/C: 83.8%
Second compound 0.1 µM, first compound 0.949 µM
  viability, T/C: 93.2%
Second compound 0.1 µM, first compound 3 µM
  viability, T/C: 102%
Second compound 0.316 µM, first compound 0.00949 µM
  viability, T/C: 73.4%
Second compound 0.316 µM, first compound 0.03 µM
  viability, T/C: 83.2%
Second compound 0.316 µM, first compound 0.0949 µM
  viability, T/C: 79.7%
Second compound 0.316 µM, first compound 0.3 µM
  viability, T/C: 83.9%
Second compound 0.316 µM, first compound 0.949 µM
  viability, T/C: 82%
Second compound 0.316 µM, first compound 3 µM
  viability, T/C: 75.2%
Second compound 1 µM, first compound 0.00949 µM
  viability, T/C: 96.9%
Second compound 1 µM, first compound 0.03 µM
  viability, T/C: 104%
Second compound 1 µM, first compound 0.0949 µM
  viability, T/C: 86.1%
Second compound 1 µM, first compound 0.3 µM
  viability, T/C: 94.8%
Second compound 1 µM, first compound 0.949 µM
  viability, T/C: 75%
Second compound 1 µM, first compound 3 µM
  viability, T/C: 79.3%
Second compound 3.16 µM, first compound 0.00949 µM
  viability, T/C: 79.3%
Second compound 3.16 µM, first compound 0.03 µM
  viability, T/C: 94.9%
Second compound 3.16 µM, first compound 0.0949 µM
  viability, T/C: 85.2%
Second compound 3.16 µM, first compound 0.3 µM
  viability, T/C: 95.5%
Second compound 3.16 µM, first compound 0.949 µM
  viability, T/C: 80.2%
Second compound 3.16 µM, first compound 3 µM
  viability, T/C: 82.5%
Second compound 10 µM, first compound 0.00949 µM
  viability, T/C: 78.3%
Second compound 10 µM, first compound 0.03 µM
  viability, T/C: 82.2%
Second compound 10 µM, first compound 0.0949 µM
  viability, T/C: 71.3%
Second compound 10 µM, first compound 0.3 µM
  viability, T/C: 69.3%
Second compound 10 µM, first compound 0.949 µM
  viability, T/C: 80.9%
Second compound 10 µM, first compound 3 µM
  viability, T/C: 79.9%

## C#Cc1c(F)ccc2cc(O)cc(-c3ncc4c(N5CC6CCC(C5)N6)nc(OCC56CCCN5CC(F)C6)nc4c3F)c12 (stereo not drawn)
Compound 0.1 µM
  viability, T/C: 99.3% [middle of 4 runs]
Compound 3.16 µM
  viability, T/C: 98.4% [middle of 4 runs]
Compound 10 µM
  viability, T/C: 96.3% [middle of 4 runs]
Curve of compound
  IC50: > 10 µM

## CC1(C)CCC(CN2CCN(c3ccc(C(=O)NS(=O)(=O)c4ccc(NCC5CCOCC5)c([N+](=O)[O-])c4)c(Oc4cnc5[nH]ccc5c4)c3)CC2)=C(c2ccc(Cl)cc2)C1 + Cc1nc(NC(=O)N2CCCC2C(N)=O)sc1-c1ccnc(C(C)(C)C(F)(F)F)c1
[1]
  IC50: > 10 µM
[2]
  IC50: > 10 µM
[3]
  IC50: > 10 µM
[4]
  IC50: > 10 µM
[5]
  IC50: > 10 µM
[6]
  IC50: < 0.0316 µM
Second compound 0.0316 µM, first compound 0.0316 µM
  viability, T/C: 106%
Second compound 0.0316 µM, first compound 0.1 µM
  viability, T/C: 94.2%
Second compound 0.0316 µM, first compound 0.316 µM
  viability, T/C: 111%
Second compound 0.0316 µM, first compound 1 µM
  viability, T/C: 99.2%
Second compound 0.0316 µM, first compound 3.16 µM
  viability, T/C: 78.1%
Second compound 0.0316 µM, first compound 10 µM
  viability, T/C: 87.8%
Second compound 0.1 µM, first compound 0.0316 µM
  viability, T/C: 118%
Second compound 0.1 µM, first compound 0.1 µM
  viability, T/C: 92.3%
Second compound 0.1 µM, first compound 0.316 µM
  viability, T/C: 92.9%
Second compound 0.1 µM, first compound 1 µM
  viability, T/C: 89.6%
Second compound 0.1 µM, first compound 3.16 µM
  viability, T/C: 108%
Second compound 0.1 µM, first compound 10 µM
  viability, T/C: 73.3%
Second compound 0.316 µM, first compound 0.0316 µM
  viability, T/C: 98.8%
Second compound 0.316 µM, first compound 0.1 µM
  viability, T/C: 101%
Second compound 0.316 µM, first compound 0.316 µM
  viability, T/C: 89.3%
Second compound 0.316 µM, first compound 1 µM
  viability, T/C: 94.3%
Second compound 0.316 µM, first compound 3.16 µM
  viability, T/C: 94%
Second compound 0.316 µM, first compound 10 µM
  viability, T/C: 80.1%
Second compound 1 µM, first compound 0.0316 µM
  viability, T/C: 99.4%
Second compound 1 µM, first compound 0.1 µM
  viability, T/C: 99.1%
Second compound 1 µM, first compound 0.316 µM
  viability, T/C: 102%
Second compound 1 µM, first compound 1 µM
  viability, T/C: 85.3%
Second compound 1 µM, first compound 3.16 µM
  viability, T/C: 76.9%
Second compound 1 µM, first compound 10 µM
  viability, T/C: 71.2%
Second compound 3.16 µM, first compound 0.0316 µM
  viability, T/C: 78.5%
Second compound 3.16 µM, first compound 0.1 µM
  viability, T/C: 65.6%
Second compound 3.16 µM, first compound 0.316 µM
  viability, T/C: 64.2%
Second compound 3.16 µM, first compound 1 µM
  viability, T/C: 59.8%
Second compound 3.16 µM, first compound 3.16 µM
  viability, T/C: 64.5%
Second compound 3.16 µM, first compound 10 µM
  viability, T/C: 57.1%
Second compound 10 µM, first compound 0.0316 µM
  viability, T/C: 40.1%
Second compound 10 µM, first compound 0.1 µM
  viability, T/C: 41.7%
Second compound 10 µM, first compound 0.316 µM
  viability, T/C: 37%
Second compound 10 µM, first compound 1 µM
  viability, T/C: 31.4%
Second compound 10 µM, first compound 3.16 µM
  viability, T/C: 30.2%
Second compound 10 µM, first compound 10 µM
  viability, T/C: 34.2%

From PubChem BioAssay AID1963959 (Molecular Pharmacology Branch, DTP, NCI, 2024)
